Results reported in patent publication US9783537B2, “3-(4-ethylnylphenyl) pyridopyrimidinone compounds and process for preparation thereof useful as potential anticancer agents” (Council of Scientific & Industrial Research, priority 2013, dated 2017).
Read-outs that look alike come from different tables or passages of the source.

How the values were obtained:
HL-60(TB) = assay: SRB 48 h growth assay, Leukemia HL-60(TB); type: cell-based, human
K-562 = assay: SRB 48 h growth assay, Leukemia K-562; type: cell-based, human
RPMI-8226 = assay: SRB 48 h growth assay, Leukemia RPMI-8226; type: cell-based, human; settings: Homo sapiens, RPMI-8226, Leukemia
HOP-62 = assay: SRB 48 h growth assay, Non-small Cell Lung HOP-62; type: cell-based, human; settings: Homo sapiens, HOP-62, Non-small Cell Lung
HOP-92 = assay: SRB 48 h growth assay, Non-small Cell Lung HOP-92; type: cell-based, human; settings: Homo sapiens, HOP-92, Non-small Cell Lung
KM12 = assay: SRB 48 h growth assay, Colon KM12; type: cell-based, human; settings: Homo sapiens
SW-620 = assay: SRB 48 h growth assay, Colon SW-620; type: cell-based, human; settings: Homo sapiens, SW-620, Colon
SNB-75 = assay: SRB 48 h growth assay, CNS SNB-75; type: cell-based, human; settings: Homo sapiens, SNB-75, CNS
SK-MEL-5 = assay: SRB 48 h growth assay, Melanoma SK-MEL-5; type: cell-based, human; settings: Homo sapiens, SK-MEL-5, Melanoma
UACC-62 = assay: SRB 48 h growth assay, Melanoma UACC-62; type: cell-based, human; settings: Homo sapiens, UACC-62, Melanoma
OVCAR-4 = assay: SRB 48 h growth assay, Ovarian OVCAR-4; type: cell-based, human; settings: Homo sapiens, OVCAR-4, Ovarian
RXF393 = assay: SRB 48 h growth assay, Renal RXF393; type: cell-based, human; settings: Homo sapiens
TK-10 = assay: SRB 48 h growth assay, Renal TK-10; type: cell-based, human; settings: Homo sapiens, TK-10, Renal, read-out: Log10 LC50 (converted)
DU-145 = assay: SRB 48 h growth assay, Prostate DU-145; type: cell-based, human; settings: Homo sapiens, DU-145, Prostate, read-out: Log10 LC50 (converted)
MCF7 = assay: SRB 48 h growth assay, Breast MCF7; type: cell-based, human; settings: Homo sapiens
MDA-MB-231/ATCC = assay: SRB 48 h growth assay, Breast MDA-MB-231/ATCC; type: cell-based, human; settings: Homo sapiens, read-out: Log10 LC50 (converted)
[1] = test system: seven colon cancer cell line (COLO 205, HCC-2998, HCT-116, HCT-15, HT29, KM12 and SW-620); assay: in vitro anticancer activity, colon panel; type: cell-based; settings: Homo sapiens; seven colon cancer cell lines, exposure at least 48 h; read-out: GI50, range over panel
[2] = in vitro anticancer activity, melanoma panel; type: cell-based; settings: Homo sapiens; nine melanoma cell lines, exposure at least 48 h; read-out: GI50, range over panel
[3] = read-out: Growth Inhibition GI50
[4] = read-out: Log10 GI50 (converted)
[5] = read-out: Log10 LC50 (converted)

C#Cc1ccc(-n2c(/C=C/c3ccc(Cl)c(F)c3)nc3ncccc3c2=O)cc1 [4g, (E)-2-(4-chloro-3-fluorostyryl)-3-(4-ethynylphenyl)pyrido[2,3-d]pyrimidin-4(3H)-one]
Log10 TGI50 (HL-60(TB)): >−4.00 | GI50 (K-562; Homo sapiens, K562, K-562, Leukemia, read-out: Growth Inhibition GI50): 330 nM | GI50 (K-562; Homo sapiens, K562, K-562, Leukemia, read-out: Log10 GI50 (converted)): 339 nM | CC50 (K-562; Homo sapiens, K562, K-562, Leukemia, read-out: Log10 LC50 (converted)): > 100000 nM | Log10 TGI50 (K-562; K-562, Leukemia): >−4.00 | GI50 (RPMI-8226; [3]): 250 nM | GI50 (RPMI-8226; [4]): 257 nM | CC50 (RPMI-8226; [5]): > 100000 nM | GI50 (HOP-62; [3]): 580 nM | GI50 (HOP-62; [4]): 589 nM | GI50 (HOP-92; [3]): 200 nM | GI50 (HOP-92; [4]): 204 nM | GI50 (KM12; [3]): 340 nM | GI50 (KM12; [4]): 347 nM | GI50 (SW-620; [3]): 370 nM | GI50 (SW-620; [4]): 380 nM | CC50 (SW-620; [5]): > 100000 nM | GI50 (SNB-75; [3]): 340 nM | GI50 (SNB-75; [4]): 339 nM | GI50 (SK-MEL-5; [3]): 220 nM | GI50 (SK-MEL-5; [4]): 229 nM | GI50 (UACC-62; [3]): 480 nM | GI50 (UACC-62; [4]): 490 nM | GI50 (OVCAR-4; [3]): 480 nM | GI50 (OVCAR-4; [4]): 479 nM | GI50 (RXF393; RXF 393, read-out: Growth Inhibition GI50): 280 nM | GI50 (RXF393; RXF 393, read-out: Log10 GI50 (converted)): 282 nM | CC50 (RXF393; RXF 393, read-out: Log10 LC50 (converted)): > 100000 nM | CC50 (TK-10): > 100000 nM | CC50 (DU-145): > 100000 nM | GI50 (MCF7; [3]): 320 nM | GI50 (MCF7; [4]): 324 nM | CC50 (MCF7; [5]): > 100000 nM | CC50 (MDA-MB-231/ATCC): > 100000 nM | GI50 [1]: 330 to 370 nM | GI50 [2]: 190 to 540 nM
